According to PubChem BioAssay AID192 (DTP/NCI, 2004):
Values joined by “and” are separate entries in the source; they are usually repeats but may differ in a detail not shown here. Identical values can stand only once. Toxic doses and inconclusive results are not listed.

System: BDF1 mice, B16 melanoma ip, median survival T/C
Assay: NCI In Vivo Anticancer Drug Screen. Data for tumor model B16 Melanoma (intraperitoneal) in B6D2F1 (BDF1) mice
Conditions: endpoint: median survival time, higher = longer survival
Outline: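 In this screen, activity was judged from survival or tumor size in treated versus vehicle-treated tumor-bearing mice, reported as T/C.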

[1] = dose: 50.0 mg/kg/injection, schedule: Q01DX009 (ip), vehicle: saline with Tween-80
[2] = dose: 100.0 mg/kg/injection, schedule: Q01DX009 (ip), vehicle: saline with Tween-80
[3] = dose: 200.0 mg/kg/injection, schedule: Q01DX009 (ip), vehicle: saline with Tween-80
[4] = dose: 12.5 mg/kg/injection, schedule: Q01DX009 (ip), vehicle: saline with Tween-80
[5] = dose: 25.0 mg/kg/injection, schedule: Q01DX009 (ip), vehicle: saline with Tween-80
[6] = dose: 25.0 mg/kg/injection, schedule: Q04DX003 (ip), vehicle: saline with Tween-80
[7] = dose: 100.0 mg/kg/injection, schedule: Q01DX009 (ip), vehicle: saline
[8] = dose: 200.0 mg/kg/injection, schedule: Q01DX009 (ip), vehicle: saline
[9] = dose: 50.0 mg/kg/injection, schedule: Q01DX009 (ip), vehicle: Klucel (hydroxypropylcellulose) (HPC)
[10] = dose: 100.0 mg/kg/injection, schedule: Q01DX009 (ip), vehicle: Klucel (hydroxypropylcellulose) (HPC)
[11] = dose: 5.0 mg/kg/injection, schedule: Q01DX009 (ip), vehicle: saline with Tween-80
[12] = dose: 10.0 mg/kg/injection, schedule: Q01DX009 (ip), vehicle: saline with Tween-80

## COC1C(O)CC(OC2CC(OC3CC(O[C@@H]4C(=O)c5c(cc6cc(OC7CC(OC8CC(O)C(O)C(C)O8)C(O)C(C)O7)c(C)c(O)c6c5O)C[C@H]4[C@H](OC)C(=O)[C@@H](O)[C@@H](C)O)OC(C)C3O)OC(C)C2O)OC1C (some centres not stated)
dose: 188.0 micrograms/kg/injection, schedule: Q01DX009 (ip), vehicle: water
  T/C: 106 % of control
dose: 375.0 micrograms/kg/injection, schedule: Q01DX009 (ip), vehicle: water
  T/C: 105 % of control
dose: 750.0 micrograms/kg/injection, schedule: Q01DX009 (ip), vehicle: water
  T/C: 121 % of control

## O=[N+]([O-])c1ccc2nc3c(nc2c1)-c1cccc2cccc-3c12
[1]
  T/C: 103 % of control
[2]
  T/C: 100 % of control
[3]
  T/C: 98 % of control

## CC(C)=CN1CCCCC1
[4]
  T/C: 101 % of control
[5]
  T/C: 105 % of control
[6]
  T/C: 104 % of control
[1]
  T/C: 108 % of control
dose: 50.0 mg/kg/injection, schedule: Q04DX003 (ip), vehicle: saline with Tween-80
  T/C: 109 % of control
dose: 100.0 mg/kg/injection, schedule: Q04DX003 (ip), vehicle: saline with Tween-80
  T/C: 90 % of control
[3]
  T/C: 86 % of control

## CC(OCc1ccccc1)C(NC(=O)OC(C)(C)C)C(=O)O (configuration not stated)
dose: 6.25 mg/kg/injection, schedule: Q01DX009 (ip), vehicle: saline with Tween-80
  T/C: 97 % of control
[4]
  T/C: 98 % of control
[5]
  T/C: 102 % of control
[1]
  T/C: 88 % of control and 95 % of control

## CC(=O)CC(=O)NCCN1CCN=C1C
[7]
  T/C: 109 % of control
[8]
  T/C: 116 % of control
dose: 400.0 mg/kg/injection, schedule: Q01DX009 (ip), vehicle: saline
  T/C: 110 % of control

## Cn1c(O)c(/C=C2\C=Nc3ccccc32)n(C)c1=N
dose: 12.5 mg/kg/injection, schedule: Q01DX009 (ip), vehicle: Klucel (hydroxypropylcellulose) (HPC)
  T/C: 96 % of control
dose: 25.0 mg/kg/injection, schedule: Q01DX009 (ip), vehicle: Klucel (hydroxypropylcellulose) (HPC)
  T/C: 100 % of control
[9]
  T/C: 101 % of control
[10]
  T/C: 97 % of control

## Nc1ncn(C2OC(CO)C(O)C2O)c(=O)n1 (configuration not stated)
dose: 0.25 mg/kg/injection, schedule: Q01DX009 (ip), vehicle: suspension in saline
  T/C: 90 % of control
dose: 0.5 mg/kg/injection, schedule: Q01DX009 (ip), vehicle: suspension in saline
  T/C: 112 % of control
dose: 0.75 mg/kg/injection, schedule: Q01DX009 (ip), vehicle: saline with Tween-80
  T/C: 118 % of control
dose: 1.0 mg/kg/injection, schedule: Q01DX009 (ip), vehicle: suspension in saline
  T/C: 91 % of control
dose: 1.5 mg/kg/injection, schedule: Q01DX009 (ip), vehicle: saline with Tween-80
  T/C: 124 % of control
dose: 2.0 mg/kg/injection, schedule: Q01DX009 (ip), vehicle: suspension in saline
  T/C: 92 % of control

## CNC(Cc1ccccc1)c1ccc(OC)cc1 (configuration not stated)
[9]
  T/C: 96 % of control
[10]
  T/C: 96 % of control

## CCCCC[C@H](CN(C)C)[C@H](O)/C=C/c1ccc(Cl)cc1
dose: 6.25 mg/kg/injection, schedule: Q01DX009 (ip), vehicle: saline
  T/C: 95 % of control
dose: 12.5 mg/kg/injection, schedule: Q01DX009 (ip), vehicle: saline
  T/C: 100 % of control
dose: 25.0 mg/kg/injection, schedule: Q01DX009 (ip), vehicle: saline
  T/C: 104 % of control

## c1ccc([I+]c2ccccc2)cc1
dose: 1.0 mg/kg/injection, schedule: Q01DX009 (ip), vehicle: saline + Tween-80 + alcohol
  T/C: 103 % of control
dose: 2.0 mg/kg/injection, schedule: Q01DX009 (ip), vehicle: saline + Tween-80 + alcohol
  T/C: 97 % of control
dose: 4.0 mg/kg/injection, schedule: Q01DX009 (ip), vehicle: saline + Tween-80 + alcohol
  T/C: 108 % of control
dose: 6.0 mg/kg/injection, schedule: Q01DX009 (sc), vehicle: olive oil, sesame oil, peanut oil
  T/C: 100 % of control

## COc1cc2oc(=O)ccc2cc1[C@@H]1OC(=O)C2(C)O[C@@H]12 (some centres not stated)
dose: 0.63 mg/kg/injection, schedule: Q01DX009 (ip), vehicle: distilled water + Tween-80
  T/C: 103 % of control
dose: 1.25 mg/kg/injection, schedule: Q01DX009 (ip), vehicle: distilled water + Tween-80
  T/C: 95 % of control
dose: 5.0 mg/kg/injection, schedule: Q01DX009 (ip), vehicle: distilled water + Tween-80
  T/C: 102 % of control
dose: 10.0 mg/kg/injection, schedule: Q01DX009 (ip), vehicle: distilled water + Tween-80
  T/C: 97 % of control

## CCN1C[C@]2(COC)[C@H](O)C[C@H](OC)[C@]34C1[C@H]([C@H](OC)[C@H]23)[C@]1(OC(C)=O)[C@H]2[C@@H](OC(=O)c3ccccc3)[C@](O)(C[C@H]24)[C@@H](OC)[C@@H]1O
dose: 15.0 micrograms/kg/injection, schedule: Q01DX009 (ip), vehicle: Klucel (hydroxypropylcellulose) (HPC)
  T/C: 92 % of control
dose: 60.0 micrograms/kg/injection, schedule: Q01DX009 (ip), vehicle: Klucel (hydroxypropylcellulose) (HPC)
  T/C: 89 % of control
dose: 120.0 micrograms/kg/injection, schedule: Q01DX009 (ip), vehicle: Klucel (hydroxypropylcellulose) (HPC)
  T/C: 94 % of control

## CCCCCCCCCC(=O)CCC
[10]
  T/C: 100 % of control
dose: 200.0 mg/kg/injection, schedule: Q01DX009 (ip), vehicle: Klucel (hydroxypropylcellulose) (HPC)
  T/C: 111 % of control
dose: 400.0 mg/kg/injection, schedule: Q01DX009 (ip), vehicle: Klucel (hydroxypropylcellulose) (HPC)
  T/C: 95 % of control

## C(COCCOCC1CO1)OCCOCC1CO1 (configuration not stated)
[4]
  T/C: 101 % of control
[5]
  T/C: 105 % of control
[1]
  T/C: 103 % of control
dose: 50.0 mg/kg/injection, schedule: Q01DX009 (ip), vehicle: saline
  T/C: 107 % of control
[2]
  T/C: 109 % of control
[7]
  T/C: 108 % of control and 110 % of control
[3]
  T/C: 99 % of control
[8]
  T/C: 86 % of control

## CC1=CC(O)C(O)C2(C)C1CC(=O)C13COC4OC(CC1C4=O)C(O)C32 (configuration not stated)
dose: 0.4 mg/kg/injection, schedule: Q01DX009 (ip), vehicle: saline with Tween-80
  T/C: 106 % of control
dose: 0.8 mg/kg/injection, schedule: Q01DX009 (ip), vehicle: saline with Tween-80
  T/C: 110 % of control
dose: 1.6 mg/kg/injection, schedule: Q01DX009 (ip), vehicle: saline with Tween-80
  T/C: 113 % of control
dose: 3.2 mg/kg/injection, schedule: Q01DX009 (ip), vehicle: saline with Tween-80
  T/C: 110 % of control
[11]
  T/C: 90 % of control
[12]
  T/C: 91 % of control

## NC(=O)Cn1cnc2c(=S)nc[nH]c21
dose: 12.5 mg/kg/injection, schedule: Q04DX003 (ip), vehicle: saline with Tween-80
  T/C: 95 % of control
[6]
  T/C: 100 % of control

## CCC(=O)N(C)[C@@H](C)C(=O)O[C@H]1CC(=O)N(C)c2cc(cc(OC)c2Cl)C/C(C)=C/C=C[C@@H](OC)[C@@]2(O)C[C@H](OC(=O)N2)[C@@H](C)[C@@H]2O[C@@]12C
dose: 2.5 micrograms/kg/injection, schedule: Q01DX009 (ip), vehicle: saline + alcohol
  T/C: 156 % of control
dose: 3.8 micrograms/kg/injection, schedule: Q01DX009 (ip), vehicle: saline + alcohol
  T/C: 171 % of control
dose: 5.0 micrograms/kg/injection, schedule: Q01DX009 (ip), vehicle: saline + alcohol
  T/C: 167 % of control and 171 % of control
dose: 7.5 micrograms/kg/injection, schedule: Q01DX009 (ip), vehicle: saline + alcohol
  T/C: 191 % of control
dose: 10.0 micrograms/kg/injection, schedule: Q01DX009 (ip), vehicle: saline + alcohol
  T/C: 168 % of control and 181 % of control
dose: 15.0 micrograms/kg/injection, schedule: Q01DX009 (ip), vehicle: saline + alcohol
  T/C: 151 % of control and 196 % of control
dose: 30.0 micrograms/kg/injection, schedule: Q01DX009 (ip), vehicle: saline + alcohol
  T/C: 103 % of control

## CC1CCCCN1CCNc1ccc(CO)c2sc3ccccc3c(=O)c12 (configuration not stated)
[5]
  T/C: 112 % of control
[1]
  T/C: 124 % of control
[2]
  T/C: 121 % of control

## CC1CC(C)(C)C(C[NH-])C1[NH-].[Cl][Pt+2][Cl] (configuration not stated)
dose: 4.0 mg/kg/injection, schedule: Q01DX009 (ip), vehicle: other
  T/C: 153 % of control
dose: 8.0 mg/kg/injection, schedule: Q01DX009 (ip), vehicle: other
  T/C: 150 % of control
dose: 16.0 mg/kg/injection, schedule: Q01DX009 (ip), vehicle: other
  T/C: 112 % of control

## CC(=O)O[C@@H]1[C@@H](O)[C@H]2O[C@@H]3C=C(C)CC[C@]3(CO)[C@]1(C)[C@@]21CO1
dose: 1.25 mg/kg/injection, schedule: Q01DX009 (ip), vehicle: saline with Tween-80
  T/C: 111 % of control
dose: 2.5 mg/kg/injection, schedule: Q01DX009 (ip), vehicle: saline with Tween-80
  T/C: 103 % of control
[11]
  T/C: 116 % of control
[12]
  T/C: 100 % of control
